“And” between values parts separate entries of the source, which are not always exact repeats. Equal entries are not always repeated. The source made the active and inactive calls. How the source made its calls: active means viability on the fitted dose curve at most 10% of control; inactive means the rest.
Tested on: ASPS-1 complex tumor spheroids, viability
Experiment: Anticancer human tumor ASPS-1 cell line growth inhibition;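 further: spheroids exposed to agents for 7 days after 3 days of growth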;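 on viability, T/C: 100% = DMSO vehicle treated spheroids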
Details: for viability, T/C: stronger effect = lower value
Source text: Multicellular complex tumor spheroid response to DNA repair inhibitors in combination with DNA-damaging drugs
This study explores the anticancer activities of DNA-damaging drugs and inhibitors of DNA damage repair, both as single agents and in combinations. Complex tumor spheroids comprised of malignant cells, endothelial cells and mesenchymal stem cells served as an in vitro model for human solid tumors. This model system incorporates physiologically relevant features and patient-derived or established malignant cell lines with clinically relevant genetic alterations from many tumor types. Twenty-six patient-derived or established malignant cell lines were evaluated representing sarcoma, melanoma, small cell lung cancer (SCLC), non-small cell lung cancer (NSCLC), as well as bladder, ovarian and pancreatic cancers. The concentration ranges selected for each drug and investigational agent were based upon clinically achievable concentrations if the clinical Cmax of the agent was known.
Compounds. The drugs and compounds olaparib (NSC753686), talazoparib (NSC767125), berzosertib (NSC777718), elimusertib (NSC800525), nedisertib (NSC802822), VX-984 (NSC792969), AZD-1390 (NSC803789), temozolomide (NSC362856), topotecan (NSC609699), trabectedin (NSC813783), staurosporine (NSC755774), and gemcitabine (NSC613327) were obtained from the National Cancer Institute (NCI) Developmental Therapeutics Program Chemical Repository. The FDA-approved anticancer drug set is available from the Developmental Therapeutics Program at https://dtp.cancer.gov/organization/dscb/obtaining/available_plates.htm. […] The stock solutions were prepared in dimethyl sulfoxide (DMSO, Sigma-Aldrich, St. Louis, MO, cat. D2650) at 400-fold the tested concentration and stored at -70 degrees C. Prior to their use, the stock solutions were diluted in fresh medium and the final DMSO concentration in the assay was 0.25% (v/v). All drugs and investigational agents were tested over a range starting from a high concentration at or near the clinical Cmax and decreasing in half-log increments. If the clinical Cmax for an agent had not been determined, the highest concentration tested was 10 microM.
Cell Lines. The patient-derived cancer cell (PDC) lines: 156681-154-R-J1-PDC, 283228-195-R-J1-PDC, 287954-098-R-J1-PDC, 292921-168-R-J2-PDC, 349418-098-R-PDC, 425362-245-T-J1-PDC, 556581-035-R-J1-PDC, and BL0293-F563-PDC were received from the NCI Patient-Derived Models Repository (PDMR, https://pdmr.cancer.gov). The established cell lines HS-SY-2 (RRID:CVCL_8719), MPNST, and SYO-1 (RRID:CVCL_7146) were obtained from the Sloan Kettering Institute. The alveolar soft parts sarcoma cell line ASPS-1 (RRID:CVCL_S738) was established at the NCI and grown from internal seed stocks. The following established cell lines were purchased from the American Type Culture Collection (ATCC, Manassas, VA): G-401 (ATCC, cat. CRL-1441, RRID:CVCL_0270), SW982 (ATCC, cat. HTB-93, RRID:CVCL_1734), VA-ES-BJ (ATCC, cat. CRL-2138, RRID:CVCL_1785), NCI-H719 (ATCC, cat. CRL-5837, RRID:CVCL_1582), NCI-H196 (ATCC, cat. CRL-5823, RRID:CVCL_1509), NCI-H841 (ATCC, cat. CRL-5845, RRID:CVCL_1595), NCI-H1618 (ATCC, cat. CRL-5879, RRID:CVCL_1480), NCI-H1876 (ATCC, cat. CRL-5902, RRID:CVCL_1503), DMS 114 (ATCC, cat. CRL-2066; RRID:CVCL_1174), NCI-H211 (ATCC, cat. CRL-5824; RRID:CVCL_1529), and SW 1271 (ATCC, cat. CRL-2177, RRID:CVCL_1716). The small cell lung cancer cell line COR-L88 was purchased from Sigma-Aldrich (cat. 92031917-1VL, RRID:CVCL_1141). The non-small cell lung cancer cell lines NCI-H226 (RRID:CVCL_1544) and NCI-H322M (RRID:CVCL_1557) were established at the NCI and grown from internal seed stocks. Pooled donor human umbilical vein endothelial cells (HUVEC, Lonza, cat. CC-2519) and human mesenchymal stem cells (hMSC, Lonza, cat. PT-2501) were purchased from Lonza (Walkersville, MD).
Cell Culture. All cells were maintained in an incubator at 37 degrees C and 5% CO2 with 95% humidity. […]

[1] = compound alone, run of 11/07/2019
[2] = compound alone, run of 12/16/2019

Compound	viability, T/C (compound 0.0316 µM)	viability, T/C (compound 0.1 µM)	viability, T/C (compound 0.316 µM)	viability, T/C (compound 1 µM)	viability, T/C (compound 3.16 µM)	viability, T/C (compound 10 µM)	IC50 (curve of compound)	viability, T/C (compound 0.00949 µM)	viability, T/C (compound 0.03 µM)	viability, T/C (compound 0.0949 µM)	viability, T/C (compound 0.3 µM)	viability, T/C (compound 0.949 µM)	viability, T/C (compound 3 µM)	also measured
CC(C)n1c(=O)n(C)c2cnc3cc(F)c(-c4ccc(OCCCN5CCCCC5)nc4)cc3c21	95.5% and 110% and 106%	108% (2×) and 107%	103% and 105% and 101%	95.2% and 106% and 100%	93% and 98.2% and 95.5%	63.6% and 56.2% and 38.7%	> 10000 nM and 7970 nM	–	–	–	–	–	–	–
CC1COCCN1c1cc(-c2ccnn2C)c2ccnc(-c3ccn[nH]3)c2n1 (configuration not stated)	85.3% and 92.7% and 83.6%	60.3% and 70.7% and 69.8%	43.5% and 50.8% and 46.5%	37.7% and 46% and 48.2%	42.6% and 45.1% and 48%	39.6% and 46.7% and 44.7%	198 nM and 376 nM and 270 nM	–	–	–	–	–	–	–
CC[C@@]1(O)C(=O)OCc2c1cc1n(c2=O)Cc2cc3c(CN(C)C)c(O)ccc3nc2-1	–	–	–	–	–	–	–	103% [middle of 10 runs]	96.3% [middle of 10 runs]	56.3% [middle of 10 runs]	–	–	–	viability, T/C (compound 0.003 µM): 101% [middle of 10 runs]; IC50 [1]: 222 nM and 160 nM and > 300 nM; IC50 [2]: > 300 nM
CNCc1ccc(-c2cc(-c3nc(-c4ccc(S(=O)(=O)C(C)C)cc4)cnc3N)on2)cc1	–	–	–	–	–	–	545 nM and 644 nM and 783 nM	107% and 103% and 105%	102% and 113% and 112%	97.4% and 108% and 96.5%	58.1% and 74.3% and 76.5%	40.4% and 38.1% and 45.4%	9.11% and 6.66% and 18%	–
COc1cc(C)[nH]c(=O)c1CN1CCc2c(Cl)cc(C(OC)C3COC3)c(Cl)c2C1=O (configuration not stated)	105% and 103% and 99%	108% and 106% and 105%	107% and 102% and 100%	106% and 97.9% and 96.5%	104% and 102% and 98%	99.3% and 104% and 97.8%	> 10000 nM	–	–	–	–	–	–	–
COc1cc2c(cc1O)CCNC21CSC2c3c(OC(C)=O)c(C)c4c(c3C(COC1=O)N1C(O)C3Cc5cc(C)c(OC)c(O)c5C(C21)N3C)OCO4 (configuration not stated)	–	–	–	–	–	–	–	–	–	–	–	–	–	viability, T/C (compound 30 pM): 103% [middle of 10 runs]; viability, T/C (compound 94.9 pM): 103% [middle of 10 runs]; viability, T/C (compound 0.0003 µM): 92.7% [middle of 10 runs]; viability, T/C (compound 0.000949 µM): 71.9% [middle of 10 runs]; viability, T/C (compound 0.003 µM): 23% [middle of 10 runs]; IC50 [2]: 1.63 nM [middle of 10 runs]
COc1ccc([C@@H](O)c2cc(-c3ncnc4cc(N5CCOCC5)ccc34)c(F)cc2Cl)nn1	108% and 103% (2×)	95.8% and 109% and 111%	103% and 102% and 94.3%	90.4%	77.3% and 89.6% and 84.7%	49.6% and 58.1% and 50.4%	9890 nM and > 10000 nM	–	–	–	–	–	–	outcome (compound 1 µM): inactive
Cc1cc(C)c(CNC(=O)c2cc(-c3ccc(CN4CCOCC4)cc3)cc3c2cnn3C2CCCC2)c(=O)[nH]1	103% and 100% and 101%	103% (2×) and 102%	103% and 92.5% and 99.4%	105% and 93.1% and 101%	96.7% and 94.2% and 93.3%	79.3% and 80.4% and 80.8%	> 10000 nM	–	–	–	–	–	–	–
Cc1sc2c(c1C)C(c1ccc(Cl)cc1)=NC(CC(=O)Nc1ccc(O)cc1)c1nnc(C)n1-2 (configuration not stated)	–	–	–	–	–	–	> 3000 nM	102% and 110% and 107%	103% and 111% and 108%	103% and 111% and 109%	108% and 105% and 100%	97.8% and 101% and 94.3%	90.6% and 87.9% and 83.7%	–
Cn1ncnc1[C@H]1c2n[nH]c(=O)c3cc(F)cc(c23)N[C@@H]1c1ccc(F)cc1	–	–	–	–	–	–	> 3000 nM	96.5% and 101%	105% (2×) and 98.6%	102% (2×) and 96.3%	102% and 95.5% and 98.4%	101% and 97.7% and 91.2%	88.4% and 86% and 72.1%	outcome (compound 0.00949 µM): inactive
Cn1nnc2c(C(N)=O)ncn2c1=O	–	–	–	98.1% [middle of 10 runs]	103% [middle of 10 runs]	92% [middle of 10 runs]	–	–	–	–	–	–	–	viability, T/C (compound 31.6 µM): 81% [middle of 10 runs]; viability, T/C (compound 100 µM): 70.1% [middle of 10 runs]; IC50 [1]: > 100000 nM
O=C(c1cc(Cc2n[nH]c(=O)c3ccccc23)ccc1F)N1CCN(C(=O)C2CC2)CC1	–	–	–	–	–	–	> 30000 nM	–	–	97.9% and 107% and 106%	95% and 115% and 111%	95.6% and 107% and 108%	101% and 108% and 102%	viability, T/C (compound 9.49 µM): 101% and 111% and 103%; viability, T/C (compound 30 µM): 89.2% and 97.1% and 60.3%
[2H]c1nc(C)nc([2H])c1-c1cc(NC[C@@H](C)c2cccc3c(C(=O)NC)ccnc23)ncn1	107% and 101% and 102%	108% and 104%	108% and 104%	106% and 113% and 95.1%	103% and 107% and 100%	97.9% and 101% and 95.2%	> 10000 nM	–	–	–	–	–	–	outcome (compound 0.1 µM): inactive; outcome (compound 0.316 µM): inactive

— PubChem BioAssay AID1845200 (Molecular Pharmacology Branch, DTP, NCI, 2023)
